How the values were obtained:
[1] = molecular target: T1, Telomerase reverse transcriptase (Homo sapiens, UniProt O14746); assay: Inhibitory activity against telomerase; ND: Not detected concentrations as high as 50 uM
[2] = molecular target: T1, Telomerase reverse transcriptase; assay: Inhibitory activity against telomerase; ND: not detected concentrations as high as 50 uM
[3] = molecular target: T1, Telomerase reverse transcriptase; assay: Inhibitory activity against telomerase

T1 sequence (O14746 whole entry): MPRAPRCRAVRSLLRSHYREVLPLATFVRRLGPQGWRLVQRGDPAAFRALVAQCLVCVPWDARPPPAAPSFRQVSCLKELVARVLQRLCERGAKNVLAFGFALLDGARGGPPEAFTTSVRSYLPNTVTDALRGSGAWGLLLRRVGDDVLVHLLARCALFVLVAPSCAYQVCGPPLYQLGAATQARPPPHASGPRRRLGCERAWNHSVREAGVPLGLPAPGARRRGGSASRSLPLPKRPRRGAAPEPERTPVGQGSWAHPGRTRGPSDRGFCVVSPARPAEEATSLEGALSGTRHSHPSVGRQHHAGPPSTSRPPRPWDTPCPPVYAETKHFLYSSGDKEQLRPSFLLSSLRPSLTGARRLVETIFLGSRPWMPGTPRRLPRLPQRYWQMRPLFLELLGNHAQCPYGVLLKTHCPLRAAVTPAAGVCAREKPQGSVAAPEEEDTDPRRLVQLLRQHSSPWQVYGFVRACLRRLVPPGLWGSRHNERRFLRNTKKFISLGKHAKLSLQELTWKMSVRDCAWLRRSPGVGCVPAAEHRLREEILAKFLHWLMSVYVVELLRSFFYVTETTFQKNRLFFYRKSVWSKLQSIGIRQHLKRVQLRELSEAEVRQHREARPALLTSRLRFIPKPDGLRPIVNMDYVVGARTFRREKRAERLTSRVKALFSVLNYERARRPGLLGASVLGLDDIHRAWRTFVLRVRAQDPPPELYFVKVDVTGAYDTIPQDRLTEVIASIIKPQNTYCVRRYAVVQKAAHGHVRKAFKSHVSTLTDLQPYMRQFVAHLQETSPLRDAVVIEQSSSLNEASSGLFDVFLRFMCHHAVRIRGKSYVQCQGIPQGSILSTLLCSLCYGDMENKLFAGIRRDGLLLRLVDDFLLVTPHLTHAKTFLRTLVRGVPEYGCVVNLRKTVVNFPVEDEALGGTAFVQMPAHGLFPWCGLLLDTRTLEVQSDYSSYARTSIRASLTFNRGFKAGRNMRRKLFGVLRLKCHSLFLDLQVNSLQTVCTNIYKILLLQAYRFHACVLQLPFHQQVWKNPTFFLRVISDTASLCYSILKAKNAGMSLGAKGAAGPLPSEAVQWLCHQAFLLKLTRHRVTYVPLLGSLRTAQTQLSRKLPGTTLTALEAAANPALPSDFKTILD

Compound	IC50 [1]	further results
C/C(=C(/Cl)C(=O)Nc1ccccc1C(=O)O)c1ccc2ccccc2c1	Inhibition not detected	
CC(/C=C(\Cl)C(=O)Nc1ccccc1C(=O)O)c1ccccc1 (configuration not stated)		IC50 [2]: Inhibition not detected
C/C(=C\C(=O)Nc1ccccc1C(=O)O)c1ccc2ccccc2c1		IC50 [3]: 5 µM
COc1cc(CCC(=O)Nc2ccccc2C(=O)O)ccc1O	Inhibition not detected	
COc1cc(/C=C(\Cl)C(=O)Nc2ccccc2C(=O)O)ccc1OCc1ccccc1	Inhibition not detected	
CC(CC(=O)Nc1ccccc1C(=O)O)c1ccc2ccccc2c1 (configuration not stated)	Inhibition not detected	
C/C(=C/C(=O)Nc1ccccc1C(=O)O)c1ccc2ccccc2c1		IC50 [3]: 5 µM

Source: ChEMBL document CHEMBL1136689, “Inhibition of telomerase by BIBR 1532 and related analogues” (Bioorg Med Chem Lett, 2003)
